Results reported in ChEMBL document CHEMBL1649134, “Occurrence of efflux mechanism and cephalosporinase variant in a population of Enterobacter aerogenes and Klebsiella pneumoniae isolates producing extended-spectrum beta-lactamases” (2009).
Values after ≈ are worked out from the molar mass of the structure shown.

Legend:
Type in all cases: functional
[1] = system: Klebsiella pneumoniae; assay: Antimicrobial activity against multidrug resistant Klebsiella pneumoniae isolate 16 by broth dilution method
[2] = system: Klebsiella pneumoniae; assay: Antimicrobial activity against multidrug resistant Klebsiella pneumoniae isolate 14 by broth dilution method
[3] = system: Klebsiella pneumoniae; assay: Antimicrobial activity against multidrug resistant Klebsiella pneumoniae isolate 11 by broth dilution method
[4] = system: Klebsiella pneumoniae; assay: Antimicrobial activity against multidrug resistant Klebsiella pneumoniae ATCC 11296 by broth dilution method
[5] = system: Klebsiella aerogenes; assay: Antimicrobial activity against multidrug resistant Enterobacter aerogenes isolate 9 by broth dilution method
[6] = system: Klebsiella aerogenes; assay: Antimicrobial activity against multidrug resistant Enterobacter aerogenes isolate 15 by broth dilution method in presence of 26.3 mg/L efflux pump inhibitor phenylalanine-arginine-beta-naphthylamide
[7] = system: Klebsiella aerogenes; assay: Antimicrobial activity against multidrug resistant Enterobacter aerogenes isolate 10 by broth dilution method
[8] = system: Klebsiella aerogenes; assay: Antimicrobial activity against multidrug resistant Enterobacter aerogenes isolate 16 by broth dilution method in presence of 26.3 mg/L efflux pump inhibitor phenylalanine-arginine-beta-naphthylamide
[9] = system: Klebsiella aerogenes; assay: Antimicrobial activity against multidrug resistant Enterobacter aerogenes isolate 14 by broth dilution method
[10] = system: Klebsiella pneumoniae; assay: Antimicrobial activity against multidrug resistant Klebsiella pneumoniae isolate 13 by broth dilution method
[11] = system: Klebsiella pneumoniae; assay: Antimicrobial activity against multidrug resistant Klebsiella pneumoniae isolate 10 by broth dilution method
[12] = system: Klebsiella pneumoniae; assay: Antimicrobial activity against multidrug resistant Klebsiella pneumoniae isolate 8 by broth dilution method
[13] = system: Klebsiella pneumoniae; assay: Antimicrobial activity against multidrug resistant Klebsiella pneumoniae isolate 15 by broth dilution method in presence of 26.3 mg/L efflux pump inhibitor phenylalanine-arginine-beta-naphthylamide
[14] = system: Klebsiella pneumoniae; assay: Antimicrobial activity against multidrug resistant Klebsiella pneumoniae isolate 12 by broth dilution method in presence of 26.3 mg/L efflux pump inhibitor phenylalanine-arginine-beta-naphthylamide
[15] = system: Klebsiella aerogenes; assay: Antimicrobial activity against multidrug resistant Enterobacter aerogenes isolate 23 by broth dilution method in presence of 26.3 mg/L efflux pump inhibitor phenylalanine-arginine-beta-naphthylamide
[16] = system: Klebsiella aerogenes; assay: Antimicrobial activity against multidrug resistant Enterobacter aerogenes isolate 2 by broth dilution method in presence of 26.3 mg/L efflux pump inhibitor phenylalanine-arginine-beta-naphthylamide
[17] = system: Klebsiella aerogenes; assay: Antimicrobial activity against multidrug resistant Enterobacter aerogenes isolate 15 by broth dilution method
[18] = system: Klebsiella pneumoniae; assay: Antimicrobial activity against multidrug resistant Klebsiella pneumoniae isolate 14 by broth dilution method in presence of 26.3 mg/L efflux pump inhibitor phenylalanine-arginine-beta-naphthylamide
[19] = system: Klebsiella pneumoniae; assay: Antimicrobial activity against multidrug resistant Klebsiella pneumoniae isolate 6 by broth dilution method
[20] = system: Klebsiella aerogenes; assay: Antimicrobial activity against multidrug resistant Enterobacter aerogenes isolate 12 by broth dilution method in presence of 26.3 mg/L efflux pump inhibitor phenylalanine-arginine-beta-naphthylamide
[21] = system: Klebsiella pneumoniae; assay: Antimicrobial activity against multidrug resistant Klebsiella pneumoniae isolate 1 by broth dilution method
[22] = system: Klebsiella aerogenes; assay: Antimicrobial activity against multidrug resistant Enterobacter aerogenes isolate 22 by broth dilution method in presence of 26.3 mg/L efflux pump inhibitor phenylalanine-arginine-beta-naphthylamide
[23] = system: Klebsiella aerogenes; assay: Antimicrobial activity against multidrug resistant Enterobacter aerogenes isolate 1 by broth dilution method
[24] = system: Klebsiella aerogenes; assay: Antimicrobial activity against multidrug resistant Enterobacter aerogenes isolate 13 by broth dilution method
[25] = system: Klebsiella aerogenes; assay: Antimicrobial activity against multidrug resistant Enterobacter aerogenes isolate 25 by broth dilution method in presence of 26.3 mg/L efflux pump inhibitor phenylalanine-arginine-beta-naphthylamide
[26] = system: Klebsiella aerogenes; assay: Antimicrobial activity against multidrug resistant Enterobacter aerogenes isolate 24 by broth dilution method in presence of 26.3 mg/L efflux pump inhibitor phenylalanine-arginine-beta-naphthylamide
[27] = system: Klebsiella aerogenes; assay: Antimicrobial activity against multidrug resistant Enterobacter aerogenes isolate 21 by broth dilution method
[28] = system: Klebsiella aerogenes; assay: Antimicrobial activity against multidrug resistant Enterobacter aerogenes isolate 4 by broth dilution method
[29] = system: Klebsiella aerogenes; assay: Antimicrobial activity against multidrug resistant Enterobacter aerogenes ATCC 15038 by broth dilution method in presence of 26.3 mg/L efflux pump inhibitor phenylalanine-arginine-beta-naphthylamide
[30] = system: Klebsiella aerogenes; assay: Antimicrobial activity against multidrug resistant Enterobacter aerogenes isolate 27 by broth dilution method in presence of 26.3 mg/L efflux pump inhibitor phenylalanine-arginine-beta-naphthylamide
[31] = system: Klebsiella pneumoniae; assay: Antimicrobial activity against multidrug resistant Klebsiella pneumoniae isolate 10 by broth dilution method in presence of 26.3 mg/L efflux pump inhibitor phenylalanine-arginine-beta-naphthylamide
[32] = system: Klebsiella pneumoniae; assay: Antimicrobial activity against multidrug resistant Klebsiella pneumoniae isolate 6 by broth dilution method in presence of 26.3 mg/L efflux pump inhibitor phenylalanine-arginine-beta-naphthylamide
[33] = system: Klebsiella pneumoniae; assay: Antimicrobial activity against multidrug resistant Klebsiella pneumoniae isolate 16 by broth dilution method in presence of 26.3 mg/L efflux pump inhibitor phenylalanine-arginine-beta-naphthylamide
[34] = system: Klebsiella pneumoniae; assay: Antimicrobial activity against multidrug resistant Klebsiella pneumoniae isolate 4 by broth dilution method
[35] = system: Klebsiella pneumoniae; assay: Antimicrobial activity against multidrug resistant Klebsiella pneumoniae isolate 3 by broth dilution method
[36] = system: Klebsiella aerogenes; assay: Antimicrobial activity against multidrug resistant Enterobacter aerogenes isolate 10 by broth dilution method in presence of 26.3 mg/L efflux pump inhibitor phenylalanine-arginine-beta-naphthylamide
[37] = system: Klebsiella aerogenes; assay: Antimicrobial activity against multidrug resistant Enterobacter aerogenes isolate 18 by broth dilution method in presence of 26.3 mg/L efflux pump inhibitor phenylalanine-arginine-beta-naphthylamide
[38] = system: Klebsiella aerogenes; assay: Antimicrobial activity against multidrug resistant Enterobacter aerogenes ATCC 15038 by broth dilution method
[39] = system: Klebsiella aerogenes; assay: Antimicrobial activity against multidrug resistant Enterobacter aerogenes isolate 3 by broth dilution method in presence of 26.3 mg/L efflux pump inhibitor phenylalanine-arginine-beta-naphthylamide
[40] = system: Klebsiella pneumoniae; assay: Antimicrobial activity against multidrug resistant Klebsiella pneumoniae isolate 2 by broth dilution method
[41] = system: Klebsiella aerogenes; assay: Antimicrobial activity against multidrug resistant Enterobacter aerogenes isolate 20 by broth dilution method in presence of 26.3 mg/L efflux pump inhibitor phenylalanine-arginine-beta-naphthylamide
[42] = system: Klebsiella aerogenes; assay: Antimicrobial activity against multidrug resistant Enterobacter aerogenes isolate 21 by broth dilution method in presence of 26.3 mg/L efflux pump inhibitor phenylalanine-arginine-beta-naphthylamide
[43] = system: Klebsiella aerogenes; assay: Antimicrobial activity against multidrug resistant Enterobacter aerogenes isolate 2 by broth dilution method
[44] = system: Klebsiella pneumoniae; assay: Antimicrobial activity against multidrug resistant Klebsiella pneumoniae isolate 11 by broth dilution method in presence of 26.3 mg/L efflux pump inhibitor phenylalanine-arginine-beta-naphthylamide
[45] = system: Klebsiella aerogenes; assay: Antimicrobial activity against multidrug resistant Enterobacter aerogenes isolate 5 by broth dilution method in presence of 26.3 mg/L efflux pump inhibitor phenylalanine-arginine-beta-naphthylamide
[46] = system: Klebsiella aerogenes; assay: Antimicrobial activity against multidrug resistant Enterobacter aerogenes isolate 24 by broth dilution method
[47] = system: Klebsiella aerogenes; assay: Antimicrobial activity against multidrug resistant Enterobacter aerogenes isolate 19 by broth dilution method
[48] = system: Klebsiella aerogenes; assay: Antimicrobial activity against multidrug resistant Enterobacter aerogenes isolate 6 by broth dilution method
[49] = system: Klebsiella pneumoniae; assay: Antimicrobial activity against multidrug resistant Klebsiella pneumoniae isolate 4 by broth dilution method in presence of 26.3 mg/L efflux pump inhibitor phenylalanine-arginine-beta-naphthylamide

CN(C)[C@@H]1C(O)=C(C(N)=O)C(=O)[C@@]2(O)C(O)=C3C(=O)c4c(O)cccc4[C@@](C)(O)[C@H]3C[C@@H]12 [TETRACYCLINE]
MIC [1]: 4 µg/mL (≈ 9 µM) | MIC [2]: 2 µg/mL (≈ 4.5 µM) | MIC [3]: 4 µg/mL (≈ 9 µM) | MIC [4]: 2 µg/mL (≈ 4.5 µM) | MIC [5]: 64 µg/mL (≈ 144 µM) | MIC [6]: 8 µg/mL | MIC [7]: 128 µg/mL (≈ 288 µM) | MIC [8]: 2 µg/mL | MIC [9]: 64 µg/mL (≈ 144 µM) | MIC [10]: 4 µg/mL (≈ 9 µM) | MIC [11]: 2 µg/mL (≈ 4.5 µM) | MIC [12]: 2 µg/mL (≈ 4.5 µM) | MIC [13]: 128 µg/mL | MIC [14]: 256 µg/mL | MIC [15]: 8 µg/mL | MIC [16]: 4 µg/mL | MIC [17]: 64 µg/mL (≈ 144 µM) | MIC [18]: 256 µg/mL | MIC [19]: 2 µg/mL (≈ 4.5 µM) | MIC [20]: 16 µg/mL | MIC [21]: 8 µg/mL (≈ 18 µM) | MIC [22]: 4 µg/mL | MIC [23]: 128 µg/mL (≈ 288 µM) | MIC [24]: 64 µg/mL (≈ 144 µM) | MIC [25]: 4 µg/mL | MIC [26]: 8 µg/mL | MIC [27]: 128 µg/mL (≈ 288 µM) | MIC [28]: 128 µg/mL (≈ 288 µM) | MIC [29]: 0.5 µg/mL | MIC [30]: 8 µg/mL | MIC [31]: 256 µg/mL | MIC [32]: 256 µg/mL | MIC [33]: 128 µg/mL | MIC [34]: 2 µg/mL (≈ 4.5 µM) | MIC [35]: 4 µg/mL (≈ 9 µM) | MIC [36]: 8 µg/mL | MIC [37]: 4 µg/mL | MIC [38]: 1 µg/mL (≈ 2.25 µM) | MIC [39]: 8 µg/mL | MIC [40]: 64 µg/mL (≈ 144 µM) | MIC [41]: 4 µg/mL | MIC [42]: 8 µg/mL | MIC [43]: 64 µg/mL (≈ 144 µM) | MIC [44]: 4 µg/mL | MIC [45]: 32 µg/mL | MIC [46]: 64 µg/mL (≈ 144 µM) | MIC [47]: 64 µg/mL (≈ 144 µM) | MIC [48]: 4 µg/mL (≈ 9 µM) | MIC [49]: 256 µg/mL

O=C(N[C@H](CO)[C@H](O)c1ccc([N+](=O)[O-])cc1)C(Cl)Cl [CHLORAMPHENICOL]
MIC [3]: 8 µg/mL (≈ 24.8 µM) | MIC [4]: 4 µg/mL (≈ 12.4 µM) | MIC [5]: 256 µg/mL (≈ 792 µM) | MIC [6]: 64 µg/mL | MIC [7]: 1020 µg/mL (≈ 3170 µM) | MIC [8]: 64 µg/mL | MIC [9]: 512 µg/mL (≈ 1580 µM) | MIC [10]: 128 µg/mL (≈ 396 µM) | MIC [11]: 4 µg/mL (≈ 12.4 µM) | MIC [12]: 32 µg/mL (≈ 99 µM) | MIC [13]: 2 µg/mL | MIC [14]: 2 µg/mL | MIC [15]: 64 µg/mL | MIC [16]: 64 µg/mL | MIC [17]: 512 µg/mL (≈ 1580 µM) | MIC [18]: 2 µg/mL | MIC [19]: 32 µg/mL (≈ 99 µM) | MIC [20]: 128 µg/mL | MIC [21]: 8 µg/mL (≈ 24.8 µM) | MIC [22]: 128 µg/mL | MIC [23]: 1020 µg/mL (≈ 3170 µM) | MIC [24]: 1020 µg/mL (≈ 3170 µM) | MIC [25]: 64 µg/mL | MIC [26]: 64 µg/mL | MIC [27]: 1020 µg/mL (≈ 3170 µM) | MIC [28]: 1020 µg/mL (≈ 3170 µM) | MIC [29]: 1 µg/mL | MIC [30]: 128 µg/mL | MIC [31]: 2 µg/mL | MIC [32]: 2 µg/mL | MIC [33]: 4 µg/mL | MIC [34]: 4 µg/mL (≈ 12.4 µM) | MIC [35]: 4 µg/mL (≈ 12.4 µM) | MIC [36]: 128 µg/mL | MIC [37]: 4 µg/mL | MIC [38]: 2 µg/mL (≈ 6.19 µM) | MIC [39]: 128 µg/mL | MIC [40]: 256 µg/mL (≈ 792 µM) | MIC [41]: 64 µg/mL | MIC [42]: 128 µg/mL | MIC [43]: 512 µg/mL (≈ 1580 µM) | MIC [44]: 4 µg/mL | MIC [45]: 128 µg/mL | MIC [46]: 512 µg/mL (≈ 1580 µM) | MIC [47]: 1020 µg/mL (≈ 3170 µM) | MIC [48]: 256 µg/mL (≈ 792 µM) | MIC [49]: 2 µg/mL
